Patent publication US20080058330A1, “Compounds and Combinations Thereof for Inhibiting Beta-Amyloid Production and Methods of Use Thereof” (Roskamp Research LLC, priority 2006, published 2008)
One block for each molecule: values may come before it.

Columns and labels:
7W WT APP751 CHO cells [1] = assay: Screening of dihydropyridine compounds of Table 2, Aβ1-40 and Aβ1-42 ELISA (Example 5); type: cell-based, Chinese hamster; settings: for concentration of Aβ1-40 compared to control: 3 and 10 μM, 24 hours (FIG. 24); for concentration of Aβ1-40 or Aβ1-42 compared to control: 3, 10, 30 and 100 μM, 24 hours (FIGS. 22A, 22B, 23A, 23B)
Experimental: (§1) Chinese hamster ovary (CHO) cells, stably transfected with human APP751 (7W WT APP751 CHO cells) were used. See, e.g., Koo and Squazzo, J. Biol. Chem., Vol. 269, Issue 26, 17386-17389, July, 1994. The cells were maintained in DMEM medium supplemented with 10% fetal bovine serum and IX mixture of penicillin/streptomycin/fungizone/glutamine mixture (Cambrex, Md.) geneticin as selecting agent in 75 cm^2 cell culture flasks.
(§2) The 7W WT APP751 CHO cells were plated in 24-well cell culture plates in quadruplicate, containing 1 ml of culture medium, and treated with various calcium channel blocker compounds for 4 hours, 24 hours or 48 hours at 37° C. and 5% CO2. All test compounds were diluted in dimethyl sulfoxide (DMSO) before being added to the cultured confluent 7W WT APP751 CHO cells. The culture medium was collected and diluted 5-fold for the 4 hours assay and 50-fold for the 24 hour assay before being assayed by ELISAs for Aβ1-40 and Aβ1-42, respectively. Concentrations of Aβ1-40 and Aβ1-42, expressed in pg/ml, were determined using commercially available ELISAs (Biosource, Calif.) in a colorimetric assay using labeled antibodies detected spectrophotometrically.
The screening of dihydropyridine compounds was conducted according to the procedure described in Example 1. Each compound was added to confluent cells to a final concentration of 3, 10, 30 or 100 μM and tested. Each of these compounds was added to confluent cells to a final concentration of 3 μM (noted as “C” in FIG. 24) or 10 μM (noted as “B” in FIG. 24).

7W WT APP751 CHO cells [2] = assay: Measurement of Aβ1-40 and Aβ1-42 by ELISA after treatment with calcium channel blockers (Example 1); type: cell-based, Chinese hamster
Experimental: as §1
as §2, with “All test compounds were diluted in dimethyl sulfoxide (DMSO) before being added to the cultured confluent 7W WT APP751 CHO cells.” left out

[3] = 30 μM, cells plated at low density, 24 hours (FIG. 1C)
[4] = 30 μM, cells plated at low density, 48 hours (FIG. 1D)

SMILES: CCOC(=O)C1=C(C)NC(C)=C(C(=O)OCC)C1c1cc(Br)ccc1F [Example 3-41, Diethyl 4-(5-bromo-2-fluorophenyl)-1,4-dihydro-2,6-dimethylpyridine-3,5-dicarboxylate]
concentration of Aβ1-40 compared to control (7W WT APP751 CHO cells [1]): decreased

SMILES: Clc1ccc(C(c2ccc(Cl)cc2)[n+]2ccn(CC(OCc3ccc(Cl)cc3Cl)c3ccc(Cl)cc3Cl)c2)cc1.[Cl-] (stereo not drawn) [Example R24571, 1-[bis(p-chlorophenyl)methyl]-3-[2-(2,4-di-chloro-p-(2,4-dichlorobenzyl-oxy)phenethyl)]-imidazolium chloride]
concentration of Aβ1-40 compared to controls (7W WT APP751 CHO cells [2]; 5 μM (FIG. 4)): significantly decreased | concentration of total β-amyloid compared to controls (7W WT APP751 CHO cells [2]; 5 μM (FIG. 4)): significantly decreased

SMILES: C#CCN1C(C)=C(C(=O)OC)C(c2cccc([N+](=O)[O-])c2)C(C(=O)OCC)=C1C (stereo not drawn) [MRS 1845, N-propargylnitrendipine]
concentration of Aβ1-40 compared to controls (7W WT APP751 CHO cells [2]; 30 μM (FIG. 3)): significantly decreased | concentration of total β-amyloid compared to controls (7W WT APP751 CHO cells [2]; 30 μM (FIG. 3)): significantly decreased

SMILES: CCOC(=O)C1=C(C)NC(C)=C(C(=O)OCC)C1c1ccccc1Br [Example 2-23, Diethyl 4-(2-bromophenyl)-1,4-dihydro-2,6-dimethylpyridine-3,5-dicarboxylate]
concentration of Aβ1-40 or Aβ1-42 compared to control (7W WT APP751 CHO cells [1]): decreased

SMILES: CC1=C(C(=O)OC(C)(C)C)C(c2ccccc2Br)C(C(=O)OC(C)(C)C)=C(C)N1 [Example 2-32, Di-tert-butyl 4-(2-bromophenyl)-1,4-dihydro-2,6-dimethylpyridine-3,5-dicarboxylate]
concentration of Aβ1-40 or Aβ1-42 compared to control (7W WT APP751 CHO cells [1]): decreased

SMILES: COc1ccc(CCCOC(Cn2ccnc2)c2ccc(OC)cc2)cc1.Cl (stereo not drawn) [SKF 96365, 1-[beta-[3-(4-methoxyphenyl)propoxy]-4-methoxyphenethyl]-1H-imidazole hydrochloride]
concentration of Aβ1-40 compared to controls (7W WT APP751 CHO cells [2]; 15 μM, 24 hours (FIG. 1B)): significantly decreased | concentration of Aβ1-40 compared to controls (7W WT APP751 CHO cells [2]; 30 μM (FIG. 2)): significantly decreased | concentration of Aβ1-42 compared to controls (7W WT APP751 CHO cells [2]; 30 μM (FIG. 2)): significantly decreased | concentration of total β-amyloid compared to controls (7W WT APP751 CHO cells [2]; 30 μM (FIG. 2)): significantly decreased | concentration of Aβ1-40 compared to controls (7W WT APP751 CHO cells [2]; 30 μM, 24 hours (FIG. 1B)): significantly decreased

SMILES: COCCOC(=O)C1=C(C)NC(C)=C(C(=O)OCCOC)C1c1cccc(Br)c1 [Example 3-37]
concentration of Aβ1-40 compared to control (7W WT APP751 CHO cells [1]): decreased

SMILES: COC(=O)C1=C(C#N)NC(C)=C(C(=O)OC(C)C)C1c1cccc([N+](=O)[O-])c1 (stereo not drawn) [nilvadipine]
concentration of Aβ1-40 compared to controls (7W WT APP751 CHO cells [2]; 30 μM (FIG. 3)): significantly decreased | concentration of total β-amyloid compared to controls (7W WT APP751 CHO cells [2]; 30 μM (FIG. 3)): significantly decreased | concentration of Aβ1-40 compared to controls (7W WT APP751 CHO cells [2]; 30 μM, 24 hours (FIG. 1B)): significantly decreased | concentration of Aβ1-40 compared to controls (7W WT APP751 CHO cells [2]; [3]): significantly decreased | concentration of Aβ1-40 compared to controls (7W WT APP751 CHO cells [2]; [4]): significantly decreased

SMILES: CC1=C(C(=O)OC(C)(C)C)C(c2ccccc2F)C(C(=O)OC(C)(C)C)=C(C)N1 [Example 2-28, Di-tert-butyl 4-(2-fluorophenyl)-1,4-dihydro-2,6-dimethylpyridine-3,5-dicarboxylate]
concentration of Aβ1-40 or Aβ1-42 compared to control (7W WT APP751 CHO cells [1]): decreased

SMILES: CC1=C(C(=O)OC(C)(C)C)C(c2cc(Br)ccc2F)C(C(=O)OC(C)(C)C)=C(C)N1 [Example 3-42]
concentration of Aβ1-40 compared to control (7W WT APP751 CHO cells [1]): decreased

SMILES: COCCOC(=O)C1=C(C)NC(C)=C(C(=O)OCCOC)C1c1ccccc1Cl [Example 2-19]
concentration of Aβ1-40 or Aβ1-42 compared to control (7W WT APP751 CHO cells [1]): decreased

SMILES: Clc1ccccc1C(c1ccccc1)(c1ccccc1)n1ccnc1 [clotrimazole]
concentration of Aβ1-40 compared to controls (7W WT APP751 CHO cells [2]; 20 μM (FIG. 4)): significantly decreased | concentration of total β-amyloid compared to controls (7W WT APP751 CHO cells [2]; 20 μM (FIG. 4)): significantly decreased

SMILES: CC1=C(C(=O)OC(C)(C)C)C(c2ccccc2[N+](=O)[O-])C(C(=O)OC(C)(C)C)=C(C)N1 [Example 2-33, Di-tert-butyl 1,4-dihydro-2,6-dimethyl-4-(2-nitrophenyl)pyridine-3,5-dicarboxylate]
concentration of Aβ1-40 or Aβ1-42 compared to control (7W WT APP751 CHO cells [1]): decreased

SMILES: CN(C)C(=O)C(CCN1CCC(O)(c2ccc(Cl)cc2)CC1)(c1ccccc1)c1ccccc1 [loperamide]
concentration of Aβ1-40 compared to controls (7W WT APP751 CHO cells [2]; 30 μM (FIG. 4)): significantly decreased | concentration of Aβ1-42 compared to controls (7W WT APP751 CHO cells [2]; 30 μM (FIG. 4)): significantly decreased | concentration of total β-amyloid compared to controls (7W WT APP751 CHO cells [2]; 30 μM (FIG. 4)): significantly decreased

SMILES: CCOC(=O)C1=C(C)NC(C)=C(C(=O)OCC)C1c1cccc(F)c1F [Example 3-22]
concentration of Aβ1-40 compared to control (7W WT APP751 CHO cells [1]): decreased

melting point: 188 to 189 °C
SMILES: COC(=O)C1=C(C)NC(C)=C(C(=O)OC)C1c1ccccc1Cl [Example 8, Dimethyl 4-(2-chlorophenyl)-1,4-dihydro-2,6-dimethylpyridine-3,5-dicarboxylate]

melting point: 125 to 126 °C
SMILES: CCOC(=O)C1=C(C)NC(C)=C(C(=O)OCC)C1c1cccc(Cl)c1Cl [Example 31, Diethyl 4-(2,3-dichlorophenyl)-1,4-dihydro-2,6-dimethylpyridine-3,5-dicarboxylate]

SMILES: CCOC(=O)C1=C(C)NC(C)=C(C(=O)OCC)C1c1ccc(Br)cc1F [Example 3-33]
concentration of Aβ1-40 compared to control (7W WT APP751 CHO cells [1]): decreased

SMILES: COCCOC(=O)C1=C(C)NC(C)=C(C(=O)OCCOC)C1c1ccc(Br)cc1 [Example 3-38, Bis(2-methoxyethyl) 4-(4-bromophenyl)-1,4-dihydro-2,6-dimethylpyridine-3,5-dicarboxylate]
concentration of Aβ1-40 compared to control (7W WT APP751 CHO cells [1]): decreased

SMILES: CCOC(=O)C1=C(C)NC(C)=C(C(=O)OCC)C1c1ccccc1[N+](=O)[O-] [Example 2-29, Diethyl 1,4-dihydro-2,6-dimethyl-4-(2-nitrophenyl)pyridine-3,5-dicarboxylate]
concentration of Aβ1-40 or Aβ1-42 compared to control (7W WT APP751 CHO cells [1]): decreased

SMILES: COc1ccc2cc1Oc1ccc(cc1)C[C@H]1c3cc(c(OC)cc3CCN1C)Oc1c(OC)c(OC)cc3c1[C@H](C2)N(C)CC3 [tetrandine, tetrandrine]
concentration of Aβ1-40 compared to controls (7W WT APP751 CHO cells [2]; 5 μM (FIG. 4)): significantly decreased | concentration of total β-amyloid compared to controls (7W WT APP751 CHO cells [2]; 5 μM (FIG. 4)): significantly decreased | concentration of Aβ1-40 compared to controls (7W WT APP751 CHO cells [2]; 10 μM (FIG. 4)): significantly decreased | concentration of total β-amyloid compared to controls (7W WT APP751 CHO cells [2]; 10 μM (FIG. 4)): significantly decreased | concentration of Aβ1-40 compared to controls (7W WT APP751 CHO cells [2]; 20 μM (FIG. 4)): significantly decreased | concentration of total β-amyloid compared to controls (7W WT APP751 CHO cells [2]; 20 μM (FIG. 4)): significantly decreased | concentration of Aβ1-40 compared to controls (7W WT APP751 CHO cells [2]; 30 μM (FIG. 4)): significantly decreased | concentration of total β-amyloid compared to controls (7W WT APP751 CHO cells [2]; 30 μM (FIG. 4)): significantly decreased

melting point: 194 to 196 °C
SMILES: CC1=C(C(=O)OC(C)(C)C)C(c2ccccc2Cl)C(C(=O)OC(C)(C)C)=C(C)N1 [Example 9, Di-tert-butyl 4-(2-chlorophenyl)-1,4-dihydro-2,6-dimethylpyridine-3,5-dicarboxylate]

melting point: 120 to 121 °C
SMILES: CCOC(=O)C1=C(C)NC(C)=C(C(=O)OCC)C1c1ccccc1Cl [Example 6, Diethyl 4-(2-chlorophenyl)-1,4-dihydro-2,6-dimethylpyridine-3,5-dicarboxylate]

SMILES: CC(C)(C)c1cc(C=C(C#N)C#N)cc(C(C)(C)C)c1O [tyrphostin A9]
concentration of Aβ1-40 compared to controls (7W WT APP751 CHO cells [2]; 20 μM (FIG. 2)): significantly decreased | concentration of Aβ1-42 compared to controls (7W WT APP751 CHO cells [2]; 20 μM (FIG. 2)): significantly decreased | concentration of total β-amyloid compared to controls (7W WT APP751 CHO cells [2]; 20 μM (FIG. 2)): significantly decreased

melting point: 118 to 119 °C
SMILES: CCOC(=O)C1=C(C)NC(C)=C(C(=O)OCC)C1c1cc(Br)ccc1F [Example 47, Diethyl 4-(5-bromo-2-fluorophenyl)-1,4-dihydro-2,6-dimethylpyridine-3,5-dicarboxylate]

SMILES: CCOC(=O)C1=C(C)NC(C)=C(C(=O)OC)C1c1cccc([N+](=O)[O-])c1 (stereo not drawn) [nitrendipine]
concentration of Aβ1-40 compared to controls (7W WT APP751 CHO cells [2]; 30 μM (FIG. 3)): significantly decreased | concentration of total β-amyloid compared to controls (7W WT APP751 CHO cells [2]; 30 μM (FIG. 3)): significantly decreased | concentration of Aβ1-40 compared to controls (7W WT APP751 CHO cells [2]; [3]): significantly decreased | concentration of Aβ1-40 compared to controls (7W WT APP751 CHO cells [2]; [4]): significantly decreased
